Reference: patent US20240025906A1 (NEURON23, INC., priority 2022, published 2024)

Tests used:
TYK2 JH2 = target: T1, TYK2 JH2 (Homo sapiens, UniProt P29597); experiment: TYK2 JH2 binding assay (KINOMEscan KdELECT competitive binding); conditions: TYK2 JH2 domain, KINOMEscan KdELECT (Assay A); read-out: Biochemical TYK2_DiscoverX_JH2_BND_Kd
T1 construct: purchased DiscoverX (KINOMEscan KdELECT service); host or cells: E. coli BL21-derived (T7 phage display) or HEK-293
In short: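 Kd values come from qPCR measurement of kinase retained on an immobilized-ligand resin after 1 h room-temperature competition with compound in an 11-point, 3-fold series.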

[1] = tested on: JAK1/TYK2 pSTAT5 (Tyr694/699) in THP-1 cell line; experiment: IFNa-stimulated JAK1/TYK2 pSTAT5 (Tyr694/699) inhibition cellular assay, AlphaLISA; format: cell-based; conditions: Homo sapiens; THP-1 cells, IFNa-stimulated, AlphaLISA (Assay B); read-out: Cellular_THP1_IFNa-pSTATS_TYK2
In short: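 THP-1 cells (2e4/well in HBSS) were preincubated with compound (8 points, 6-fold steps from 10000 nM final) for 1 h at 37 °C, then stimulated with IFNa (added at 100 ng/mL) for 30 min. Lysate pSTAT5 was read by AlphaLISA at 615 nm. IC50 came from a 4-parameter fit with bottom 0 and Hill −1.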

T1 sequence (P29597 589-875 limits assumed): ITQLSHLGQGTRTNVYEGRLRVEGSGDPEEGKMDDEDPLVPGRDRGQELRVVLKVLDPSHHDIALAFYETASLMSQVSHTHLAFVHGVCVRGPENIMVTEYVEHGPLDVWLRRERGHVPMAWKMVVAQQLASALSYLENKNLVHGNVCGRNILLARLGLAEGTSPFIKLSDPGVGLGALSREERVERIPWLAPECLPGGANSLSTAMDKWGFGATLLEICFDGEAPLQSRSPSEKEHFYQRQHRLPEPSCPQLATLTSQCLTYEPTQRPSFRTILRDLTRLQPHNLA

SMILES	Kd (TYK2 JH2)	IC50 [1]
CNc1ncc(C#Cc2ccc(COC)cc2)c2cc(NC(=O)C3CC3)ncc12 [Example 648, N-(5-((4-(methoxymethyl)phenyl)ethynyl)-8-(methylamino)-2,7-naphthyridin-3-yl)cyclopropanecarboxamide]	≤ 100 nM	≤ 500 nM
CNc1ncc(C#Cc2ccc3c(cnn3C)c2)c2cc(NC(=O)C3CC3)ncc12 [Example 649, N-(5-((1-methyl-1H-indazol-5-yl)ethynyl)-8-(methylamino)-2,7-naphthyridin-3-yl)cyclopropanecarboxamide]	≤ 100 nM	≤ 500 nM
CNc1ncc(C#Cc2ccc(SC)cc2)c2cc(NC(=O)C3CC3)ncc12 [Example 650, N-(8-(methylamino)-5-((4-(methylthio)phenyl)ethynyl)-2,7-naphthyridin-3-yl)cyclopropanecarboxamide]	≤ 100 nM	≤ 500 nM
CNc1ccc(C#Cc2cnc(NC)c3cnc(NC(=O)C4CC4)cc23)cc1 [Example 651, N-(8-(methylamino)-5-((4-(methylamino)phenyl)ethynyl)-2,7-naphthyridin-3-yl)cyclopropanecarboxamide]	≤ 100 nM	≤ 500 nM
CNc1ncc(C#Cc2ccccc2C(C)(C)O)c2cc(NC(=O)C3CC3)ncc12 [Example 652, N-(5-((2-(2-hydroxypropan-2-yl)phenyl)ethynyl)-8-(methylamino)-2,7-naphthyridin-3-yl)cyclopropanecarboxamide]	≤ 100 nM	≤ 500 nM
CNc1ncc(C#Cc2cnn(C)n2)c2cc(NC(=O)C3CC3)ncc12 [Example 653, N-(5-((2-methyl-2H-1,2,3-triazol-4-yl)ethynyl)-8-(methylamino)-2,7-naphthyridin-3-yl)cyclopropanecarboxamide]	≤ 100 nM	≤ 500 nM
CNc1ncc(C#Cc2ccc(OC(F)F)cc2)c2cc(NC(=O)C3CC3)ncc12 [Example 654, N-(5-((4-(difluoromethoxy)phenyl)ethynyl)-8-(methylamino)-2,7-naphthyridin-3-yl)cyclopropanecarboxamide]	≤ 100 nM	≤ 500 nM
CNc1ncc(C#Cc2ccc(C(C)(F)F)cc2)c2cc(NC(=O)C3CC3)ncc12 [Example 655]	≤ 100 nM	≤ 500 nM
CNc1ncc(C#Cc2ccc(OCF)cc2)c2cc(NC(=O)C3CC3)ncc12 [Example 656, N-(5-((4-(fluoromethoxy)phenyl)ethynyl)-8-(methylamino)-2,7-naphthyridin-3-yl)cyclopropanecarboxamide]	≤ 100 nM	≤ 500 nM
CNc1ncc(C#Cc2ccc(C(F)(F)F)cn2)c2cc(NC(=O)C3CC3)ncc12 [Example 657, N-(8-(methylamino)-5-((5-(trifluoromethyl)pyridin-2-yl)ethynyl)-2,7-naphthyridin-3-yl)cyclopropanecarboxamide]	≤ 100 nM	≤ 500 nM
CNc1ncc(C#Cc2ccc(C(F)F)cn2)c2cc(NC(=O)C3CC3)ncc12 [Example 658]	≤ 100 nM	≤ 500 nM
CNc1ncc(C#Cc2ccc(C)cn2)c2cc(NC(=O)C3CC3)ncc12 [Example 659, N-(8-(methylamino)-5-((5-methylpyridin-2-yl)ethynyl)-2,7-naphthyridin-3-yl)cyclopropanecarboxamide]	≤ 100 nM	≤ 500 nM
CNc1ncc(C#Cc2ccc(CC(F)(F)F)cn2)c2cc(NC(=O)C3CC3)ncc12 [Example 660, N-(8-(methylamino)-5-((5-(2,2,2-trifluoroethyl)pyridin-2-yl)ethynyl)-2,7-naphthyridin-3-yl)cyclopropanecarboxamide]	≤ 100 nM	≤ 500 nM
CNc1ncc(C#Cc2ccc(C#N)cn2)c2cc(NC(=O)C3CC3)ncc12 [Example 661, N-(5-((5-cyanopyridin-2-yl)ethynyl)-8-(methylamino)-2,7-naphthyridin-3-yl)cyclopropanecarboxamide]	≤ 100 nM	≤ 500 nM
CNc1ncc(C#Cc2ccc(C(C)(C)O)cn2)c2cc(NC(=O)C3CC3)ncc12 [Example 662, N-(5-((5-(2-hydroxypropan-2-yl)pyridin-2-yl)ethynyl)-8-(methylamino)-2,7-naphthyridin-3-yl)cyclopropanecarboxamide]	≤ 100 nM	≤ 500 nM
CNc1ncc(C#Cc2cc(C)c(OC)cn2)c2cc(NC(=O)C3CC3)ncc12 [Example 663, N-(5-((5-methoxy-4-methylpyridin-2-yl)ethynyl)-8-(methylamino)-2,7-naphthyridin-3-yl)cyclopropanecarboxamide]	≤ 100 nM	≤ 500 nM

SMILES	Kd (TYK2 JH2)	IC50 [1]
CNc1ncc(C#Cc2ncc(OC)cc2C)c2cc(NC(=O)C3CC3)ncc12 [Example 664, N-(5-((5-methoxy-3-methylpyridin-2-yl)ethynyl)-8-(methylamino)-2,7-naphthyridin-3-yl)cyclopropanecarboxamide]	≤ 100 nM	≤ 500 nM
CNc1ncc(C#Cc2ncc(OC)cc2F)c2cc(NC(=O)C3CC3)ncc12 [Example 665, N-(5-((3-fluoro-5-methoxypyridin-2-yl)ethynyl)-8-(methylamino)-2,7-naphthyridin-3-yl)cyclopropanecarboxamide]	≤ 100 nM	≤ 500 nM
CNc1ncc(C#Cc2ccc3occc3n2)c2cc(NC(=O)C3CC3)ncc12 [Example 666, N-(5-(furo[3,2-b]pyridin-5-ylethynyl)-8-(methylamino)-2,7-naphthyridin-3-yl)cyclopropanecarboxamide]	≤ 100 nM	≤ 500 nM
CNc1ncc(C#Cc2cc3ccoc3cn2)c2cc(NC(=O)C3CC3)ncc12 [Example 667, N-(5-(furo[2,3-c]pyridin-5-ylethynyl)-8-(methylamino)-2,7-naphthyridin-3-yl)cyclopropanecarboxamide]	≤ 100 nM	≤ 500 nM
CNc1ncc(C#Cc2ccc3nc(CO)sc3c2)c2cc(NC(=O)C3CC3)ncc12 [Example 668, N-(5-((2-(hydroxymethyl)benzo[d]thiazol-6-yl)ethynyl)-8-(methylamino)-2,7-naphthyridin-3-yl)cyclopropanecarboxamide]	≤ 100 nM	≤ 500 nM
CNc1ncc(C#Cc2ccncc2CO)c2cc(NC(=O)C3CC3)ncc12 [Example 669, N-(5-((3-(hydroxymethyl)pyridin-4-yl)ethynyl)-8-(methylamino)-2,7-naphthyridin-3-yl)cyclopropanecarboxamide]	≤ 100 nM	≤ 500 nM
CNc1ncc(C#Cc2ccc(NC(C)=O)cc2)c2cc(NC(=O)C3CC3)ncc12 [Example 670, N-(5-((4-acetamidophenyl)ethynyl)-8-(methylamino)-2,7-naphthyridin-3-yl)cyclopropanecarboxamide]	≤ 100 nM	≤ 500 nM
CNc1ncc(C#Cc2ccc(-n3ccccc3=O)cc2)c2cc(NC(=O)C3CC3)ncc12 [Example 671, N-(8-(methylamino)-5-((4-(2-oxopyridin-1(2H)-yl)phenyl)ethynyl)-2,7-naphthyridin-3-yl)cyclopropanecarboxamide]	≤ 100 nM	≤ 500 nM
CNC(=O)c1ccc(C#Cc2cnc(NC)c3cnc(NC(=O)C4CC4)cc23)cc1 [Example 672, 4-((6-(cyclopropanecarboxamido)-1-(methylamino)-2,7-naphthyridin-4-yl)ethynyl)-N-methylbenzamide]	≤ 100 nM	≤ 500 nM
CNc1ncc(C#Cc2ccc(S(=O)(=O)NC)cc2)c2cc(NC(=O)C3CC3)ncc12 [Example 673, N-(8-(methylamino)-5-((4-(N-methylsulfamoyl)phenyl)ethynyl)-2,7-naphthyridin-3-yl)cyclopropanecarboxamide]	≤ 100 nM	≤ 500 nM
CNc1ncc(C#Cc2ccc(N3CCCC3=O)cc2)c2cc(NC(=O)C3CC3)ncc12 [Example 674, N-(8-(methylamino)-5-((4-(2-oxopyrrolidin-1-yl)phenyl)ethynyl)-2,7-naphthyridin-3-yl)cyclopropanecarboxamide]	≤ 100 nM	≤ 500 nM
CNc1ncc(C#Cc2ccc(N3CCOC3=O)cc2)c2cc(NC(=O)C3CC3)ncc12 [Example 675, N-(8-(methylamino)-5-((4-(2-oxooxazolidin-3-yl)phenyl)ethynyl)-2,7-naphthyridin-3-yl)cyclopropanecarboxamide]	≤ 100 nM	≤ 500 nM
CNc1ncc(C#Cc2nc3ccc(OC)cn3n2)c2cc(NC(=O)C3CC3)ncc12 [Example 676, N-(5-((6-methoxy-[1,2,4]triazolo[1,5-a]pyridin-2-yl)ethynyl)-8-(methylamino)-2,7-naphthyridin-3-yl)cyclopropanecarboxamide]	≤ 100 nM	≤ 500 nM
CNc1ncc(C#Cc2ccc(OCC3COC3)cc2)c2cc(NC(=O)C3CC3)ncc12 [Example 677, N-(8-(methylamino)-5-((4-(oxetan-3-ylmethoxy)phenyl)ethynyl)-2,7-naphthyridin-3-yl)cyclopropanecarboxamide]	≤ 100 nM	≤ 500 nM
CNc1ncc(C#Cc2ccc(OCC3COC3)cn2)c2cc(NC(=O)C3CC3)ncc12 [Example 678, N-(8-(methylamino)-5-((5-(oxetan-3-ylmethoxy)pyridin-2-yl)ethynyl)-2,7-naphthyridin-3-yl)cyclopropanecarboxamide]	≤ 100 nM	≤ 500 nM
